Data taken from ChEMBL document CHEMBL3867490, “Chalcone-benzoxaborole hybrids as novel anticancer agents” (Bioorg Med Chem Lett, 2016).

assay: Selectivity ratio of IC50 for human WI38 cells to IC50 for human SKOV3 cells; format: ADME, cell-based, SK-OV-3; details: WI38 cells versus SKOV3 cells, read-out: Ratio IC50

Row | SMILES | selectivity ratio
1 | O=C(/C=C/c1ccc2c(c1)B(O)OC2)c1ccc(I)cc1 | > 25

assay: Cytotoxicity against human MCF10A cells assessed as reduction in cell viability after 48 hrs by MTT assay; format: toxicity, cell-based, MCF-10A; details: not given

Row | SMILES | IC50 at 48 h
2 | O=C(/C=C/c1ccc2c(c1)B(O)OC2)c1ccccc1 | 15.9 µM
3 | Cc1ccc(C(=O)/C=C/c2ccc3c(c2)B(O)OC3)cc1 | 8.3 µM
4 | O=C(/C=C/c1ccc2c(c1)B(O)OC2)c1ccc(-c2ccccc2)cc1 | 20.7 µM
5 | O=C(/C=C/c1ccc2c(c1)B(O)OC2)c1cccc2ccccc12 | 13.4 µM
6 | O=C(/C=C/c1ccc2c(c1)B(O)OC2)c1ccco1 | 7.4 µM
7 | O=C(/C=C/c1ccc2c(c1)B(O)OC2)c1cccs1 | 13.8 µM
8 | Cn1cccc1C(=O)/C=C/c1ccc2c(c1)B(O)OC2 | > 100 µM
9 | O=C(/C=C/c1ccc2c(c1)B(O)OC2)c1ccc([N+](=O)[O-])cc1 | 17.5 µM
10 | O=C(/C=C/c1ccc2c(c1)B(O)OC2)c1ccc(C(F)(F)F)cc1 | 22.3 µM
11 | CCOC(=O)c1ccc(C(=O)/C=C/c2ccc3c(c2)B(O)OC3)cc1 | 12.9 µM
12 | O=C(/C=C/c1ccc2c(c1)B(O)OC2)c1ccc(F)cc1 | 11.8 µM
13 | O=C(/C=C/c1ccc2c(c1)B(O)OC2)c1ccc(Cl)cc1 | 12.1 µM
14 | O=C(/C=C/c1ccc2c(c1)B(O)OC2)c1ccc(Br)cc1 | 27.8 µM
15 | O=C(/C=C/c1ccc2c(c1)B(O)OC2)c1ccc(I)cc1 | > 100 µM
16 | CCc1ccc(C(=O)/C=C/c2ccc3c(c2)B(O)OC3)cc1 | 8.8 µM
17 | CSc1ccc(C(=O)/C=C/c2ccc3c(c2)B(O)OC3)cc1 | 7.4 µM
18 | O=C(/C=C/c1ccc2c(c1)B(O)OC2)c1ccc(OCc2ccccc2)cc1 | 23.3 µM
19 | O=C(/C=C/c1ccc2c(c1)B(O)OC2)c1ccc(O)cc1 | 24.8 µM
20 | Nc1ccc(C(=O)/C=C/c2ccc3c(c2)B(O)OC3)cc1 | 19.9 µM
21 | O=C(/C=C/c1ccc2c(c1)B(O)OC2)c1ccccc1F | 25.4 µM

assay: Cytotoxicity against human WI38 cells assessed as reduction in cell viability after 48 hrs by MTT assay; format: toxicity, cell-based, WI-38; details: not given

Row | SMILES | IC50 at 48 h
22 | O=C(/C=C/c1ccc2c(c1)B(O)OC2)c1ccccc1 | 19.1 µM
23 | Cc1ccc(C(=O)/C=C/c2ccc3c(c2)B(O)OC3)cc1 | 22.2 µM
24 | O=C(/C=C/c1ccc2c(c1)B(O)OC2)c1ccc(-c2ccccc2)cc1 | 18.3 µM
25 | O=C(/C=C/c1ccc2c(c1)B(O)OC2)c1cccc2ccccc12 | 18.8 µM
26 | O=C(/C=C/c1ccc2c(c1)B(O)OC2)c1ccco1 | 59 µM
27 | O=C(/C=C/c1ccc2c(c1)B(O)OC2)c1cccs1 | 26 µM
28 | Cn1cccc1C(=O)/C=C/c1ccc2c(c1)B(O)OC2 | > 100 µM
29 | O=C(/C=C/c1ccc2c(c1)B(O)OC2)c1ccc([N+](=O)[O-])cc1 | 39.3 µM
30 | O=C(/C=C/c1ccc2c(c1)B(O)OC2)c1ccc(C(F)(F)F)cc1 | 22.6 µM
31 | CCOC(=O)c1ccc(C(=O)/C=C/c2ccc3c(c2)B(O)OC3)cc1 | 47.2 µM
32 | O=C(/C=C/c1ccc2c(c1)B(O)OC2)c1ccc(F)cc1 | 7.6 µM
33 | O=C(/C=C/c1ccc2c(c1)B(O)OC2)c1ccc(Cl)cc1 | 24.7 µM
34 | O=C(/C=C/c1ccc2c(c1)B(O)OC2)c1ccc(Br)cc1 | 36.7 µM
35 | O=C(/C=C/c1ccc2c(c1)B(O)OC2)c1ccc(I)cc1 | > 100 µM
36 | CCc1ccc(C(=O)/C=C/c2ccc3c(c2)B(O)OC3)cc1 | 20.6 µM
37 | CSc1ccc(C(=O)/C=C/c2ccc3c(c2)B(O)OC3)cc1 | 54.3 µM
38 | O=C(/C=C/c1ccc2c(c1)B(O)OC2)c1ccc(OCc2ccccc2)cc1 | > 100 µM
39 | O=C(/C=C/c1ccc2c(c1)B(O)OC2)c1ccc(O)cc1 | > 100 µM
40 | Nc1ccc(C(=O)/C=C/c2ccc3c(c2)B(O)OC3)cc1 | 25.4 µM
41 | O=C(/C=C/c1ccc2c(c1)B(O)OC2)c1ccccc1F | 23.6 µM

assay: Cytotoxicity against human SKOV3 cells assessed as reduction in cell viability after 48 hrs by MTT assay; format: functional, cell-based; details: SK-OV-3, 48 h

Row | SMILES | IC50
42 | O=C(/C=C/c1ccc2c(c1)B(O)OC2)c1ccccc1 | 3.4 µM
43 | Cc1ccc(C(=O)/C=C/c2ccc3c(c2)B(O)OC3)cc1 | 3.7 µM
44 | O=C(/C=C/c1ccc2c(c1)B(O)OC2)c1ccc(-c2ccccc2)cc1 | 4.9 µM
45 | O=C(/C=C/c1ccc2c(c1)B(O)OC2)c1cccc2ccccc12 | 2.7 µM
46 | O=C(/C=C/c1ccc2c(c1)B(O)OC2)c1ccco1 | 20.7 µM
47 | O=C(/C=C/c1ccc2c(c1)B(O)OC2)c1cccs1 | 10.4 µM
48 | Cn1cccc1C(=O)/C=C/c1ccc2c(c1)B(O)OC2 | 93.6 µM
49 | O=C(/C=C/c1ccc2c(c1)B(O)OC2)c1ccc([N+](=O)[O-])cc1 | 7.9 µM
50 | O=C(/C=C/c1ccc2c(c1)B(O)OC2)c1ccc(C(F)(F)F)cc1 | 3.7 µM
51 | CCOC(=O)c1ccc(C(=O)/C=C/c2ccc3c(c2)B(O)OC3)cc1 | 7.1 µM
52 | O=C(/C=C/c1ccc2c(c1)B(O)OC2)c1ccc(F)cc1 | 1.4 µM
53 | O=C(/C=C/c1ccc2c(c1)B(O)OC2)c1ccc(Cl)cc1 | 3.7 µM
54 | O=C(/C=C/c1ccc2c(c1)B(O)OC2)c1ccc(Br)cc1 | 4.5 µM
55 | O=C(/C=C/c1ccc2c(c1)B(O)OC2)c1ccc(I)cc1 | 4.2 µM
56 | CCc1ccc(C(=O)/C=C/c2ccc3c(c2)B(O)OC3)cc1 | 4.4 µM
57 | CSc1ccc(C(=O)/C=C/c2ccc3c(c2)B(O)OC3)cc1 | 4.1 µM
58 | O=C(/C=C/c1ccc2c(c1)B(O)OC2)c1ccc(OCc2ccccc2)cc1 | 6 µM
59 | O=C(/C=C/c1ccc2c(c1)B(O)OC2)c1ccc(O)cc1 | 13 µM
60 | Nc1ccc(C(=O)/C=C/c2ccc3c(c2)B(O)OC3)cc1 | 20.2 µM
61 | O=C(/C=C/c1ccc2c(c1)B(O)OC2)c1ccccc1F | 3.7 µM

assay: Cytotoxicity against human HCT116 cells assessed as reduction in cell viability after 48 hrs by MTT assay; format: functional, cell-based; details: HCT-116, 48 h

Row | SMILES | IC50
62 | O=C(/C=C/c1ccc2c(c1)B(O)OC2)c1ccccc1 | 6.1 µM
63 | Cc1ccc(C(=O)/C=C/c2ccc3c(c2)B(O)OC3)cc1 | 10.5 µM
64 | O=C(/C=C/c1ccc2c(c1)B(O)OC2)c1ccc(-c2ccccc2)cc1 | 9.5 µM
65 | O=C(/C=C/c1ccc2c(c1)B(O)OC2)c1cccc2ccccc12 | 5 µM
66 | O=C(/C=C/c1ccc2c(c1)B(O)OC2)c1ccco1 | 24.1 µM
67 | O=C(/C=C/c1ccc2c(c1)B(O)OC2)c1cccs1 | 14.2 µM
68 | Cn1cccc1C(=O)/C=C/c1ccc2c(c1)B(O)OC2 | > 100 µM
69 | O=C(/C=C/c1ccc2c(c1)B(O)OC2)c1ccc([N+](=O)[O-])cc1 | 9.1 µM
70 | O=C(/C=C/c1ccc2c(c1)B(O)OC2)c1ccc(C(F)(F)F)cc1 | 6.3 µM
71 | CCOC(=O)c1ccc(C(=O)/C=C/c2ccc3c(c2)B(O)OC3)cc1 | 7.6 µM
72 | O=C(/C=C/c1ccc2c(c1)B(O)OC2)c1ccc(F)cc1 | 2.8 µM
73 | O=C(/C=C/c1ccc2c(c1)B(O)OC2)c1ccc(Cl)cc1 | 9.3 µM
74 | O=C(/C=C/c1ccc2c(c1)B(O)OC2)c1ccc(Br)cc1 | 9.9 µM
75 | O=C(/C=C/c1ccc2c(c1)B(O)OC2)c1ccc(I)cc1 | 11.6 µM
76 | CCc1ccc(C(=O)/C=C/c2ccc3c(c2)B(O)OC3)cc1 | 10.9 µM
77 | CSc1ccc(C(=O)/C=C/c2ccc3c(c2)B(O)OC3)cc1 | 10.3 µM
78 | O=C(/C=C/c1ccc2c(c1)B(O)OC2)c1ccc(OCc2ccccc2)cc1 | 12.1 µM
79 | O=C(/C=C/c1ccc2c(c1)B(O)OC2)c1ccc(O)cc1 | 24.1 µM
80 | Nc1ccc(C(=O)/C=C/c2ccc3c(c2)B(O)OC3)cc1 | 26.1 µM
81 | O=C(/C=C/c1ccc2c(c1)B(O)OC2)c1ccccc1F | 4.2 µM

assay: Cytotoxicity against human MDA-MB-231 cells assessed as reduction in cell viability after 48 hrs by MTT assay; format: functional, cell-based; details: MDA-MB-231, 48 h

Row | SMILES | IC50
82 | O=C(/C=C/c1ccc2c(c1)B(O)OC2)c1ccccc1 | 2.3 µM
83 | Cc1ccc(C(=O)/C=C/c2ccc3c(c2)B(O)OC3)cc1 | 6.5 µM
84 | O=C(/C=C/c1ccc2c(c1)B(O)OC2)c1ccc(-c2ccccc2)cc1 | 6.4 µM
85 | O=C(/C=C/c1ccc2c(c1)B(O)OC2)c1cccc2ccccc12 | 3.6 µM
86 | O=C(/C=C/c1ccc2c(c1)B(O)OC2)c1ccco1 | 7.3 µM
87 | O=C(/C=C/c1ccc2c(c1)B(O)OC2)c1cccs1 | 4.6 µM
88 | Cn1cccc1C(=O)/C=C/c1ccc2c(c1)B(O)OC2 | > 100 µM
89 | O=C(/C=C/c1ccc2c(c1)B(O)OC2)c1ccc([N+](=O)[O-])cc1 | 11.2 µM
90 | O=C(/C=C/c1ccc2c(c1)B(O)OC2)c1ccc(C(F)(F)F)cc1 | 9.2 µM
91 | CCOC(=O)c1ccc(C(=O)/C=C/c2ccc3c(c2)B(O)OC3)cc1 | 13 µM
92 | O=C(/C=C/c1ccc2c(c1)B(O)OC2)c1ccc(F)cc1 | 1.6 µM
93 | O=C(/C=C/c1ccc2c(c1)B(O)OC2)c1ccc(Cl)cc1 | 7.9 µM
94 | O=C(/C=C/c1ccc2c(c1)B(O)OC2)c1ccc(Br)cc1 | 9.5 µM
95 | O=C(/C=C/c1ccc2c(c1)B(O)OC2)c1ccc(I)cc1 | 14.9 µM
96 | CCc1ccc(C(=O)/C=C/c2ccc3c(c2)B(O)OC3)cc1 | 9.8 µM
97 | CSc1ccc(C(=O)/C=C/c2ccc3c(c2)B(O)OC3)cc1 | 9.8 µM
98 | O=C(/C=C/c1ccc2c(c1)B(O)OC2)c1ccc(OCc2ccccc2)cc1 | 5.3 µM
99 | O=C(/C=C/c1ccc2c(c1)B(O)OC2)c1ccc(O)cc1 | 25.6 µM
100 | Nc1ccc(C(=O)/C=C/c2ccc3c(c2)B(O)OC3)cc1 | 25.8 µM
101 | O=C(/C=C/c1ccc2c(c1)B(O)OC2)c1ccccc1F | 2.2 µM

assay: Selectivity ratio of IC50 for human WI38 cells to IC50 for human MDA-MB-231 cells; format: ADME, cell-based, WI-38; details: WI38 cells versus MDA-MB-231 cells, read-out: Ratio IC50

Row | SMILES | selectivity ratio
102 | O=C(/C=C/c1ccc2c(c1)B(O)OC2)c1ccccc1 | 8

assay: Selectivity ratio of IC50 for human MCF10A cells to IC50 for human SKOV3 cells; format: ADME, cell-based, MCF-10A; details: MCF10A cells versus SKOV3 cells, read-out: Ratio IC50

Row | SMILES | selectivity ratio
103 | O=C(/C=C/c1ccc2c(c1)B(O)OC2)c1ccc(I)cc1 | > 25
